Assay: Compound was tested for inhibition of Angiotensin II receptor in rabbit aorta binding assay

Row | IC50 [nM] | Compound
1 | 23 | CCc1nc2c(C)cc(C)nc2n1Cc1ccc(-c2ccoc2-c2nn[nH]n2)cc1
2 | 2.4 | CCc1nc2c(C)cc(C)nc2n1Cc1ccc(-c2cscc2-c2nn[nH]n2)cc1
3 | 1000 | CCc1nc2c(C)cc(C)nc2n1Cc1ccc(-c2ccccc2-c2nn[nH]n2)s1
4 | 2.3 | CCc1nc2c(C)cc(C)nc2n1Cc1ccc(-c2ccsc2-c2nn[nH]n2)cc1
